SMILES strings stand for the structures.

This is an account of results in patent publication US7754220B2, “Methods of inhibiting secretion of follicle-stimulating hormone and testosterone” (Takeda Pharmaceutical Company Limited, priority 2003, dated 2010).

This data set can be described thus: Level of human metastin in plasma by EIA after sustained administration. Type of data set: in vivo. As to conditions: rat, sc, male Copenhagen rats, continuous s.c. administration by osmotic pumps at 6.0 nmol/hr, 7 days after implantation. As to the method: Male Copenhagen rats of 8 weeks old after birth (Charles River Laboratories, US) were anesthetized by giving an intraperitoneal injection of sodium pentobarbital (Nembutal, Dainippon Pharmaceutical Co., Ltd.) in a dose of 50 mg/kg body weight. Then, two ALZET osmotic pumps (Model 2001, volume: 200 μL, rate: 1.0 μL/hr) filled with a 3 mM human metastin solution in distilled water (metastin group) or with distilled water (distilled water group) were implanted subcutaneously in rats at the back (5 rats in each group), whereby human metastin was continuously administered at a rate of 6.0 nmol/hr in the metastin group. For the intraperitoneal administration of sodium pentobarbital, a 1 mL tuberculin syringe and a 26-gauge needle (both by Terumo Co., Ltd.) were used. Following weighing the body weight 7 days after the implantation of the pumps, the animal was sacrificed by decapitation to collect blood. At the same time, the weight of testis was weighed. […] The levels of FSH (follicle-stimulating hormone), LH (luteinizing hormone) and testosterone contained in plasma were determined by radioimmunoassay (Rat Follicle Stimulating Hormone (rFSH) [^125I] Biotrack Assay System with Magnetic Separation, Rat Luteinizing Hormone (rLH) [^125I] Biotrack Assay System with Magnetic Separation, all by Amersham Biosciences, and DPC.Total Testosterone by Diagnostic Products Corporation).

As to `CC[C@H](C)[C@H](NC(=O)[C@H](CCC(N)=O)NC(=O)[C@H](CCCNC(=N)N)NC(=O)[C@H](CO)NC(=O)[C@H](Cc1c[nH]cn1)NC(=O)[C@@H]1CCCN1C(=O)[C@H](C)NC(=O)[C@H](CO)NC(=O)[C@H](CC(C)C)NC(=O)CNC(=O)[C@@H]1CCCN1C(=O)[C@H](CCC(N)=O)NC(=O)[C@H](CCC(N)=O)NC(=O)[C@H](CCCNC(=N)N)NC(=O)[C@H](CO)NC(=O)CNC(=O)[C@H](CO)NC(=O)[C@H](CO)NC(=O)[C@H](CCC(=O)O)NC(=O)[C@@H]1CCCN1C(=O)[C@@H]1CCCN1C(=O)[C@@H]1CCCN1C(=O)[C@H](CO)NC(=O)[C@H](CC(C)C)NC(=O)[C@H](CO)NC(=O)[C@@H](NC(=O)CN)[C@@H](C)O)C(=O)N1CCC[C@H]1C(=O)N[C@@H](C)C(=O)N1CCC[C@H]1C(=O)N[C@@H](CCC(N)=O)C(=O)NCC(=O)N[C@@H](C)C(=O)N[C@H](C(=O)N[C@@H](CC(C)C)C(=O)N[C@H](C(=O)N[C@@H](CCC(N)=O)C(=O)N[C@@H](CCCNC(=N)N)C(=O)N[C@@H](CCC(=O)O)C(=O)N[C@@H](CCCCN)C(=O)N[C@@H](CC(=O)O)C(=O)N[C@@H](CC(C)C)C(=O)N1CCC[C@H]1C(=O)N[C@@H](CC(N)=O)C(=O)N[C@@H](Cc1ccc(O)cc1)C(=O)N[C@@H](CC(N)=O)C(=O)N[C@@H](Cc1c[nH]c2ccccc12)C(=O)N[C@@H](CC(N)=O)C(=O)N[C@@H](CO)C(=O)N[C@@H](Cc1ccccc1)C(=O)NCC(=O)N[C@@H](CC(C)C)C(=O)N[C@@H](CCCNC(=N)N)C(=O)N[C@@H](Cc1ccccc1)C(N)=O)C(C)C)C(C)C` [Human metastin], the level at time molar at 168 h was ~3.2 nM.
